Results reported in patent publication US11174223B2, “Compositions, methods, and systems for the synthesis and use of imaging agents” (Lantheus Medical Imaging, Inc., priority 2010, dated 2021).

Assays:
[1] = Whole organ bio-distribution and dosimetry from PET in healthy subjects; format: in vivo, human
Experimental: Whole organ bio-distribution and dosimetry for ^18F-labeled imaging agent-1 were determined based on PET image data from twelve healthy subjects. Image quantification, kinetic modeling to determine residence times, and dosimetry analysis were performed.
Head to mid-thigh PET image data for twelve healthy subjects were obtained using ^18F labeled imaging agent-1 at approximately 17, 31, 45, 117, 190, and 225 minutes post injection. Additionally, leg images were also obtained at approximately 66 and 274 minutes post injection. Image data were attenuation corrected at the imaging site, and were quantified based on the Medical Internal Radiation Dosimetry (MIRD) 16 methodology to determine kinetic data in all organs showing significant uptake of activity. Dosimetry estimates were created via kinetic modeling of the quantified image data to determine residence times, and the standard MIRD methodology using a method similar. Kinetic data, residence times, and the dosimetry estimates were reported for each subject and as summary statistics.

[2] = Tissue biodistribution by tissue sampling in rats; format: in vivo
Experimental: (§1) Imaging agent-1 was designed as a substrate for the norepinephrine transporter (NET) to image the cardiac sympathetic nervous system. […] These values were similar to that of MIBG (2.12±0.26 μM and 4.76±0.78 pmol/min/million cells). In animals, tissue biodistribution of imaging agent-1 was assessed by tissue sampling at 15- and 60-minute following administration. Heart uptake was 2.36±0.16 and 2.17±0.12% injected dose per g tissue (% ID/g) in rats and 0.25±0.03 and 0.28±0.03% ID/g in rabbits. In rabbits, desipramine (1 mg/kg) inhibited heart uptake of imaging agent-1 by 68% and ^123I-MIBG uptake by 55% at 1 hour post dose.

[3] = Tissue biodistribution by tissue sampling in rabbits; format: in vivo
Experimental: as §1

[4] = molecular target: T1, norepinephrine transporter (NET), uptake 1 (Oryctolagus cuniculus, UniProt G1TDF9); experiment: Heart uptake in rabbits after uptake 1 blockade (desipramine) or 6-hydroxydopamine sympathetic denervation; format: in vivo; conditions: rabbits
T1 construct: from tissue; host or cells: rabbit heart, in vivo
Experimental: as §1
(§2) Desipramine, a selective uptake 1 inhibitor, was used to block cardiac uptake 1 in rats (10 mg/kg, ip), rabbits (1 mg/kg iv), and NHPs (0.5 mg/kg, iv). 6-hydroxydopamine, a neurotoxin, was injected to induce sympathetic denervation in rats (100 mg/kg ip for 7 days) and rabbits (25 mg/kg iv on day 1, 2, 7, and 8). Imaging agent-1 heart uptake in comparison with MIBG was assessed by tissue sampling at 60 minutes post imaging agent injection. Imaging was also performed with (2-tert-butyl-4-chloro-5-[4-(2-[^18F]fluoroethoxymethyl)-benzyloxy]-2H-pyridazin-3-1.

[5] = system: norepinephrine transporter (NET), uptake 1; experiment: Heart uptake in rats after uptake 1 blockade (desipramine) or 6-hydroxydopamine sympathetic denervation; format: in vivo; conditions: 60 minutes post injection
Experimental: as §2

[6] = molecular target: T2, NET (Rattus norvegicus, UniProt Q63380); experiment: Cell uptake selectivity with and without desipramine in PC-12 cells; format: cell-based
T2 construct: endogenous in cells; host or cells: PC-12
Experimental: (§3) The affinity (Ki) was determined in a competition binding assay by incubating ^19F-imaging agent-1, a cold analog of imaging agent-1, or NE with ^3H-desmethylimipramine in cell membrane overexpressing human NET. The uptake selectivity was assessed by measuring imaging agent-1 or ^3H-NE cell uptake with and without pretreatment of desipramine, a selective NET inhibitor, in SK—N—SH (human neuroblastoma) and PC-12 (rat pheochromocytoma) cells. In SK—NSH cells, the uptake kinetics (Km and Vmax) were evaluated by measuring NET mediated uptake of imaging agent-1 or NE at various concentrations. Imaging agent-1 cardiac image quality was evaluated by PET imaging (˜1.5 mCi, i.v.) in rabbits in the presence and absence of desipramine (1 mg/kg).

[7] = Cardiac PET imaging in rabbit model of regional cardiac sympathetic denervation (RCSD) and re-innervation; format: in vivo, rabbits
Experimental: Rabbit models of RCSD were developed by applying phenol directly on the surface of the left ventricular wall during a sternotomy. Two and twelve weeks following the procedure, imaging agent-1 cardiac PET imaging (˜1.5 mCi, iv) were performed in these rabbits. The myocardial area with radioactivity ≥50% maximum was quantified as innervated region for comparison. To evaluate susceptibility of arrhythmia in rabbits, dofetilide (10 and 40 μg/kg iv, a delayed IKr inhibitor) induced changes were assessed by measuring ECG including heart rate (HR), QTc interval (corrected by Fridericia method), and frequency of arrhythmia.

[8] = molecular target: T3, NET (Homo sapiens, UniProt P23975); experiment: Competition binding assay in cell membranes over-expressing human NET; design: expressed in transfected cells
Experimental: Imaging agent-1 was designed as a substrate for the norepinephrine transporter (NET) to image the cardiac sympathetic nervous system. […] In animals, tissue biodistribution of imaging agent-1 was assessed by tissue sampling at 15- and 60-minute following administration.
as §3, with “The uptake selectivity was assessed by measuring imaging agent-1 or ^3H-NE cell uptake with and without pretreatment of desipramine, a selective NET inhibitor, in SK—N—SH (human neuroblastoma) and PC-12 (rat pheochromocytoma) cells.” left out

[9] = molecular target: T3, NET; experiment: Cell uptake selectivity with and without desipramine in SK-N-SH cells; format: cell-based; design: endogenous in cells; host or cells: SK-N-SH
Experimental: as §3

[10] = molecular target: T3, NET; experiment: NET mediated uptake kinetics in SK-N-SH cells; format: cell-based; design: endogenous in cells; host or cells: SK-N-SH
Experimental: as §3

[11] = 15-minute following administration
[12] = 60-minute following administration

T3 sequence (P23975 whole entry): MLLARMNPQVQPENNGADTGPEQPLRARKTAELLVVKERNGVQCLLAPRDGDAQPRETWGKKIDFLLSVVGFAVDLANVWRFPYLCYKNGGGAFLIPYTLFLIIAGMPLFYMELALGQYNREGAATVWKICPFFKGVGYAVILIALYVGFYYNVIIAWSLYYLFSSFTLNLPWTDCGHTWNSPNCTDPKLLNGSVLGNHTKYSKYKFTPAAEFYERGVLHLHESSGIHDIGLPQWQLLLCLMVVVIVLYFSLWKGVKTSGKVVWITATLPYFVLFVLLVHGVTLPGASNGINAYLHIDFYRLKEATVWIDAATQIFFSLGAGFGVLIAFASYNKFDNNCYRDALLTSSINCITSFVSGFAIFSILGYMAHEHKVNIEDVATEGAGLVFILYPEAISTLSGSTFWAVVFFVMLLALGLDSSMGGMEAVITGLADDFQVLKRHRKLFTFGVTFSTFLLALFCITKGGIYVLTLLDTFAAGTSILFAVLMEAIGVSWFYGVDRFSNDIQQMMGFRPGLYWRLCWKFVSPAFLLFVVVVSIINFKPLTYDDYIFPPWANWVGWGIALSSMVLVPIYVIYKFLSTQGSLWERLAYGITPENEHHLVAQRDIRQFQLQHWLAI
T1 sequence (G1TDF9 1-617): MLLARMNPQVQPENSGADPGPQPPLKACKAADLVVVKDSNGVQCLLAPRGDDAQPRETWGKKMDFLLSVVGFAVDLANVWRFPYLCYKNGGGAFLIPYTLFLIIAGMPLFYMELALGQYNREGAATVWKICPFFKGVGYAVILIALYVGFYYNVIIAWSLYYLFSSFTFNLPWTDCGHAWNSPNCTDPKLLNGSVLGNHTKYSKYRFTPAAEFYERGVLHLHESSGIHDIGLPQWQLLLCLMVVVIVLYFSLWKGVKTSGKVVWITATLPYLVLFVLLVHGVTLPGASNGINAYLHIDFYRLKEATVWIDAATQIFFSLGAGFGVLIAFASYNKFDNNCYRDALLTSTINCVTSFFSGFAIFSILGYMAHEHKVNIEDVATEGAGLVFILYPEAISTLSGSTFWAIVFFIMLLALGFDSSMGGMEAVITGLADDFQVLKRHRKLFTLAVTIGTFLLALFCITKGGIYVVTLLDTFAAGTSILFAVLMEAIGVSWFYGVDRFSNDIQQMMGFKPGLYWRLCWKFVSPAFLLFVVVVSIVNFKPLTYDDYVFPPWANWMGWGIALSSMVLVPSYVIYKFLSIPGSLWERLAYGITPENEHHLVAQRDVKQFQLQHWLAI
T2 sequence (Q63380 1-617): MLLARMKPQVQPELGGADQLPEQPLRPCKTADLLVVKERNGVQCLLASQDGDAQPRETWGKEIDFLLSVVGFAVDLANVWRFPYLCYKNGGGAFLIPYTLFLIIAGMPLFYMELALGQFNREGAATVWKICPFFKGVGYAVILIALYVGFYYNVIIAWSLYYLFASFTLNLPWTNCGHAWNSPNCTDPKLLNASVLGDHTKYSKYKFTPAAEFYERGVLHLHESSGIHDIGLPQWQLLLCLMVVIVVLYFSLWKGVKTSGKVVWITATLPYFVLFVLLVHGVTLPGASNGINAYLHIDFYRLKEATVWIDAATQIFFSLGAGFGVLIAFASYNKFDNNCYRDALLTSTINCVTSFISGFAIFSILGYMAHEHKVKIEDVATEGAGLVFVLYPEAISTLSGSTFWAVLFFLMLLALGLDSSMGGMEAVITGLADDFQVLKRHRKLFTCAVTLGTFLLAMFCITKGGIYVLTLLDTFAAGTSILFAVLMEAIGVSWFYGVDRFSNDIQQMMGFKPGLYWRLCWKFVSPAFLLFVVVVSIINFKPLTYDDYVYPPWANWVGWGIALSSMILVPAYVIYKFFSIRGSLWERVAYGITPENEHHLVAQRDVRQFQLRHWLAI

Ratio of myocardial to liver radioactivity ([1]; at 4 hours): more than two
Injected dose remaining in the myocardium ([1]; decay-corrected, through 4 hours after injection): above 1.5 % of ID
Blood radioactivity clearance ([1]; human, in vivo): cleared quickly
Lung activity ([1]; human, in vivo): low throughout the study
Ratio of myocardial to liver radioactivity ([1]; initially): approximately one
Heart uptake [2, 11]: 2.36±0.16 % ID/g
Heart uptake [2, 12]: 2.17±0.12 % ID/g
Heart uptake [3, 11]: 0.25±0.03 % ID/g
Heart uptake [3, 12]: 0.28±0.03 % ID/g
Decrease in heart uptake after sympathetic denervation with 6-hydroxydopamine ([4]; 6-OHDA i.v.): 79%
Inhibition of heart uptake by desipramine (uptake 1 blockade) ([4]; desipramine 1 mg/kg, 1 hour post dose): 68%
tissue uptake at 60 min ([5]; rat, heart, other: injection, rats, control group of denervation): 2.58 ± 0.76 %ID/g
Heart uptake ([5]; rats, control of uptake 1 blockade): 1.47±0.22 % ID/g
Heart uptake ([5]; rats, uptake 1 blocked (desipramine 10 mg/kg ip)): 1.41±0.07 % ID/g
Heart uptake ([5]; sympathetic denervated rats (6-hydroxydopamine)): 2.18±0.39 % ID/g
Inhibition of cell uptake by blockade of NET (desipramine) [6]: 66±7%
Ki ([8]; Example 25, cell membranes over-expressing the human NET): 5.16 ± 0.93 µM
Ki ([8]; Example 27, ^19F cold analog or NE vs ^3H-desmethylimipramine, membrane overexpressing human NET): 5.2 ± 1.1 µM
Inhibition of cell uptake by blockade of NET (desipramine) [9]: 91±1%
Vmax (NET mediated uptake) [10]: 6.0±1.3 pMol/million cells/min
Structure (SMILES): N=C(N)NCc1ccc(OCCC[18F])c(Br)c1 [imaging agent-1, 1-{3-Bromo-4-[3-[^18F]fluoropropoxy]benzyl}guanidine]
Peak uptake, liver ([1]; average): approximately 15.5 % of the injected activity
Peak uptake, urinary bladder ([1]; average): approximately 18.3 % of the injected activity
Tolerability ([1]; human, in vivo): well tolerated
Injected dose seen in the myocardium initially ([1]; initially): Approximately 1.6 % of the injected dose (ID)
Adverse events ([1]; twelve healthy subjects): No adverse events
Innervated region (myocardial area with radioactivity ≥50% maximum) ([7]; phenol RCSD rabbits, 2 weeks post surgery): 12245±905 voxels
Innervated region (myocardial area with radioactivity ≥50% maximum) ([7]; phenol RCSD rabbits, 12 weeks): 16812±503 voxels
Innervated region (myocardial area with radioactivity ≥50% maximum) ([7]; sham-denervated rabbits): 20702±2190 voxels
